Results from patent US8299111B2, “Compounds which modulate the CB2 receptor” (Boehringer Ingelheim International GmbH, priority 2006, dated 2012).

Target: T1, human CB2R (Homo sapiens, UniProt P34972)
T1 construct: host or cells: CHO cells
Assay: CB2R mediated modulation of cAMP synthesis
Assay type: cell-based
Details: found through the use of the above described assays (binding and cAMP); CHO cells expressing human CB2R, forskolin-stimulated cAMP
Procedure, shortened: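 EC50 values reflect inhibition of cAMP made in response to 10 uM forskolin (with 1 mM IBMX, 0.25% BSA) over 30 min at 37 °C in human CB2R-expressing CHO cells. The window runs from forskolin alone to 1 uM CP55940; curves fitted with a four-parameter logistic model.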

T1 sequence (P34972 whole entry): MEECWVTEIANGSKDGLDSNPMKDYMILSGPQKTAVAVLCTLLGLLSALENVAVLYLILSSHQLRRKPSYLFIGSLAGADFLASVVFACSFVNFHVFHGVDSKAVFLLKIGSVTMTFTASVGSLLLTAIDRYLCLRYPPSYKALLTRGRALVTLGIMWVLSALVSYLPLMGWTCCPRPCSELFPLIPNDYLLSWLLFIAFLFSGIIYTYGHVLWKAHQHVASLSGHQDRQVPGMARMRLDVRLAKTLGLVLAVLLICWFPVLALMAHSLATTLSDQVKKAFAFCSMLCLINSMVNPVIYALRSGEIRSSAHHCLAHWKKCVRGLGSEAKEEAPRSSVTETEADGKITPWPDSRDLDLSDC

Row | agonistic activity | Structure (SMILES)
1 | agonistic activity | CC(C)(C(=O)Nc1cccc(C(F)(F)F)c1)S(=O)(=O)c1ccc(S(C)(=O)=O)cc1 [2-methyl-2-{[4-(methylsulfonyl)phenyl]sulfonyl}-N-[3-(trifluoromethyl)phenyl]propanamide]
2 | agonistic activity | CC(C)(C(=O)Nc1nc(C(F)(F)F)cs1)S(=O)(=O)c1ccc(S(C)(=O)=O)cc1 [2-methyl-2-{[4-(methylsulfonyl)phenyl]sulfonyl}-N-[4-(trifluoromethyl)-1,3-thiazol-2-yl]propanamide]
3 | agonistic activity | CC(C)(C(=O)Nc1cc(C(F)(F)F)ccn1)S(=O)(=O)c1ccc(S(C)(=O)=O)cc1 [2-methyl-2-{[4-(methylsulfonyl)phenyl]sulfonyl}-N-[4-(trifluoromethyl)pyridin-2-yl]propanamide]
4 | agonistic activity | CC(C)(C(=O)Nc1ccc(C(F)(F)F)cn1)S(=O)(=O)c1ccc(S(C)(=O)=O)cc1 [2-methyl-2-{[4-(methylsulfonyl)phenyl]sulfonyl}-N-[5-(trifluoromethyl)pyridin-2-yl]propanamide]
5 | agonistic activity | CC(C)(C(=O)Nc1cccc(C(F)(F)F)n1)S(=O)(=O)c1ccc(S(C)(=O)=O)cc1 [2-methyl-2-{[4-(methylsulfonyl)phenyl]sulfonyl}-N-[6-(trifluoromethyl)pyridin-2-yl]propanamide]
6 | agonistic activity | CC(C)(C(=O)Nc1nc(C(F)(F)F)cs1)S(=O)(=O)c1ccc(C(F)(F)F)nc1 [2-methyl-2-{[6-(trifluoromethyl)pyridin-3-yl]sulfonyl}-N-[4-(trifluoromethyl)-1,3-thiazol-2-yl]propanamide]
7 | agonistic activity | CC(C)(C(=O)Nc1cccc2ccccc12)S(=O)(=O)c1ccc(C(F)(F)F)nc1 [2-methyl-N-1-naphthyl-2-{[6-(trifluoromethyl)pyridin-3-yl]sulfonyl}propanamide]
8 | agonistic activity | Cn1nc(-c2ccccc2)cc1NC(=O)C(C)(C)S(=O)(=O)c1ccc(S(C)(=O)=O)cc1 [2-methyl-N-(1-methyl-3-phenyl-1H-pyrazol-5-yl)-2-{[4-(methylsulfonyl)phenyl]sulfonyl}propanamide]
9 | agonistic activity | CC(C)(C(=O)Nc1nc(-c2ccccc2)cs1)S(=O)(=O)c1ccc(C(F)(F)F)nc1 [2-methyl-N-(4-phenyl-1,3-thiazol-2-yl)-2-{[6-(trifluoromethyl)pyridin-3-yl]sulfonyl}propanamide]
10 | agonistic activity | Cc1sc(NC(=O)C(C)(C)S(=O)(=O)c2ccc(S(C)(=O)=O)cc2)nc1-c1ccccc1 [2-methyl-N-(5-methyl-4-phenyl-1,3-thiazol-2-yl)-2-{[4-(methylsulfonyl)phenyl]sulfonyl}propanamide]
11 | agonistic activity | Cc1sc(NC(=O)C(C)(C)S(=O)(=O)c2ccc(C(F)(F)F)nc2)nc1-c1ccccc1 [2-methyl-N-(5-methyl-4-phenyl-1,3-thiazol-2-yl)-2-{[6-(trifluoromethyl)pyridin-3-yl]sulfonyl}propanamide]
12 | agonistic activity | Cc1ccc(NC(=O)C(C)(C)S(=O)(=O)c2ccc(C(F)(F)F)nc2)nc1 [2-methyl-N-(5-methylpyridin-2-yl)-2-{[6-(trifluoromethyl)pyridin-3-yl]sulfonyl}propanamide]
13 | agonistic activity | CC(C)(C(=O)Nc1cccc(C(F)(F)F)c1)S(=O)(=O)c1ccc(C(F)(F)F)nc1 [2-methyl-N-[3-(trifluoromethyl)phenyl]-2-{[6-(trifluoromethyl)pyridin-3-yl]sulfonyl}propanamide]
14 | agonistic activity | CC(C)(C(=O)Nc1ccc(C(F)(F)F)cc1)S(=O)(=O)c1ccc(C(F)(F)F)nc1 [2-methyl-N-[4-(trifluoromethyl)phenyl]-2-{[6-(trifluoromethyl)pyridin-3-yl]sulfonyl}propanamide]
15 | agonistic activity | CC(C)(C(=O)Nc1cccc(C(F)(F)F)n1)S(=O)(=O)c1ccc(C(F)(F)F)nc1 [2-methyl-N-[6-(trifluoromethyl)pyridin-2-yl]-2-{[6-(trifluoromethyl)pyridin-3-yl]sulfonyl}propanamide]
16 | agonistic activity | CC(C)(C(=O)Nc1ccc2ccccc2n1)S(=O)(=O)c1ccc(C(F)(F)F)nc1 [2-methyl-N-quinolin-2-yl-2-{[6-(trifluoromethyl)pyridin-3-yl]sulfonyl}propanamide]

Row | agonistic activity | Structure (SMILES)
17 | agonistic activity | CC(C)(C(=O)Nc1cnc2ccccc2c1)S(=O)(=O)c1ccc(C(F)(F)F)nc1 [2-methyl-N-quinolin-3-yl-2-{[6-(trifluoromethyl)pyridin-3-yl]sulfonyl}propanamide]
18 | agonistic activity | CC(C)C(C(=O)Nc1ccc(C(F)(F)F)cn1)S(=O)(=O)c1ccc(C(F)(F)F)cc1 (stereo not drawn) [3-Methyl-2-(4-trifluoromethyl-benzenesulfonyl)-N-(5-trifluoromethyl-pyridin-2-yl)-butyramide]
19 | agonistic activity | CC(C)C(C(=O)Nc1cccc(C(F)(F)F)n1)S(=O)(=O)c1ccc(C(F)(F)F)cc1 (stereo not drawn) [3-Methyl-2-(4-trifluoromethyl-benzenesulfonyl)-N-(6-trifluoromethyl-pyridin-2-yl)-butyramide]
20 | agonistic activity | CC(C)(C)c1csc(NC(=O)C2(S(=O)(=O)c3ccc(C(F)(F)F)cc3)CCOCC2)n1 [4-(4-Trifluoromethyl-benzenesulfonyl)-tetrahydro-pyran-4-carboxylic acid (4-tert-butyl-thiazol-2-yl)-amide]
21 | agonistic activity | Cn1nc(C(C)(C)C)cc1NC(=O)C1(S(=O)(=O)c2ccc(C(F)(F)F)cc2)CCOCC1 [4-(4-Trifluoromethyl-benzenesulfonyl)-tetrahydro-pyran-4-carboxylic acid (5-tert-butyl-2-methyl-2H-pyrazol-3-yl)-amide]
22 | agonistic activity | Cc1nc(NC(=O)C2(S(=O)(=O)c3ccc(C(F)(F)F)cc3)CCOCC2)sc1C(C)(C)C [4-(4-Trifluoromethyl-benzenesulfonyl)-tetrahydro-pyran-4-carboxylic acid (5-tert-butyl-4-methyl-thiazol-2-yl)-amide]
23 | agonistic activity | CC(C)(C)c1cc(NC(=O)C2(S(=O)(=O)c3ccc(C(F)(F)F)cc3)CCOCC2)no1 [4-(4-Trifluoromethyl-benzenesulfonyl)-tetrahydro-pyran-4-carboxylic acid (5-tert-butyl-isoxazol-3-yl)-amide]
24 | agonistic activity | O=C(Nc1ccc(C(F)(F)F)cn1)C1(S(=O)(=O)c2ccc(C(F)(F)F)cc2)CCOCC1 [4-(4-Trifluoromethyl-benzenesulfonyl)-tetrahydro-pyran-4-carboxylic acid (5-trifluoromethyl-pyridin-2-yl)-amide]
25 | agonistic activity | O=C(Nc1cccc(C(F)(F)F)n1)C1(S(=O)(=O)c2ccc(C(F)(F)F)cc2)CCOCC1 [4-(4-Trifluoromethyl-benzenesulfonyl)-tetrahydro-pyran-4-carboxylic acid (6-trifluoromethyl-pyridin-2-yl)-amide]
26 | agonistic activity | CC(C)(C(=O)Nc1nc2ccccc2s1)S(=O)(=O)c1ccc(C(F)(F)F)nc1 [N-1,3-benzothiazol-2-yl-2-methyl-2-{[6-(trifluoromethyl)pyridin-3-yl]sulfonyl}propanamide]
27 | agonistic activity | CC(C)(C(=O)Nc1nc2ccccc2o1)S(=O)(=O)c1ccc(Cl)cc1F [N-1,3-benzoxazol-2-yl-2-[(4-chloro-2-fluorophenyl)sulfonyl]-2-methylpropanamide]
28 | agonistic activity | CC(C)(C(=O)Nc1nc2ccccc2o1)S(=O)(=O)c1ccc(C(F)(F)F)nc1 [N-1,3-benzoxazol-2-yl-2-methyl-2-{[6-(trifluoromethyl)pyridin-3-yl]sulfonyl}propanamide]
29 | agonistic activity | COc1ccc(S(=O)(=O)C(C)(C)C(=O)Nc2c(C)c(-c3ccccc3)nn2C)cc1 [N-(1,4-dimethyl-3-phenyl-1H-pyrazol-5-yl)-2-[(4-methoxyphenyl)sulfonyl]-2-methylpropanamide]
30 | agonistic activity | Cc1c(-c2ccccc2)nn(C)c1NC(=O)C(C)(C)S(=O)(=O)c1ccc(C(F)(F)F)nc1 [N-(1,4-dimethyl-3-phenyl-1H-pyrazol-5-yl)-2-methyl-2-{[6-(trifluoromethyl)pyridin-3-yl]sulfonyl}propanamide]
31 | agonistic activity | CC(C)(C(=O)Nc1ccccc1Cl)S(=O)(=O)c1ccc(C(F)(F)F)cc1 [N-(2-Chloro-phenyl)-2-methyl-2-(4-trifluoromethyl-benzenesulfonyl)-propionamide]
32 | agonistic activity | CC(C)(C)c1ccccc1NC(=O)C(C)(C)S(=O)(=O)c1ccc(Cl)cc1 [N-(2-tert-Butyl-phenyl)-2-(4-chloro-benzenesulfonyl)-2-methyl-propionamide]

Row | Structure (SMILES) | agonistic activity
33 | CCCc1cc(NC(=O)C(C)(C)S(=O)(=O)c2ccc(C(F)(F)F)nc2)on1 [2-methyl-N-(3-propylisoxazol-5-yl)-2-{[6-(trifluoromethyl)pyridin-3-yl]sulfonyl}propanamide] | agonistic activity
34 | CC(C)(C(=O)Nc1nsc(-c2ccccc2)n1)S(=O)(=O)c1ccc(C(F)(F)F)nc1 [2-methyl-N-(5-phenyl-1,2,4-thiadiazol-3-yl)-2-{[6-(trifluoromethyl)pyridin-3-yl]sulfonyl}propanamide] | agonistic activity
35 | CC(C)(C(=O)Nc1nc2ccccc2s1)S(=O)(=O)c1ccc(Cl)cc1F [N-1,3-benzothiazol-2-yl-2-[(4-chloro-2-fluorophenyl)sulfonyl]-2-methylpropanamide] | agonistic activity
36 | CC(C)(C(=O)Nc1nc2ccccc2o1)S(=O)(=O)c1ccc(S(C)(=O)=O)cc1 [N-1,3-benzoxazol-2-yl-2-methyl-2-{[4-(methylsulfonyl)phenyl]sulfonyl}propanamide] | agonistic activity
